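Values below derive from 48-hour exposures of cells grown in 96-well plates, with endpoints linearly interpolated between the two concentrations bracketing the appropriate inhibition level. At the GI50, growth is halved. The concentration for full growth arrest is given as TGI.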

One test deals with NCI-H226 lung. Nature of the test: DTP human tumour cell line panel, 48 h.
For the compound `O=c1cc(-c2ccccc2)oc2cc(OCCCOc3ccc4c(=O)cc(-c5ccccc5)oc4c3)ccc12`, the TGI is over 100 µM.

For another test, the system named is CAKI-1 renal. Nature of the test: DTP human tumour cell line panel, 48 h.
Compound `CCOC(=O)NC(=O)c1cn(CCCO)c(=O)[nH]c1=O` registered a TGI of over 100 µM. Still for that read-out and setting: for `CCN1c2ccccc2C(C(SC)S(=O)(=O)c2ccc(C)cc2)c2c1[nH]c(=O)n(C)c2=O` (configuration not stated) the value was over 100 µM; for `COc1ccc(S(=O)(=O)NNS(C)(=O)=O)cc1`, over 100 µM. As for `COc1cc(/C=C2\CN(S(=O)(=O)c3ccccc3)C/C(=C\c3cc(CN4CCCC4)c(O)c(OC)c3)C2=O)cc(CN2CCCC2)c1O`, the GI50 was 1.83 µM and the TGI worked out at 5.21 µM. Taken in the same sequence, the figures for `CN1CCN(CCCn2c(=O)c3sc4ncccc4c3n3nnc(-c4ccccc4)c23)CC1` were 6.16 µM and 13 µM. For `CC(=O)OC1COC(n2ccc3cc(Br)c([N+](=O)[O-])cc32)C(OC(C)=O)C1OC(C)=O` (configuration not stated), the TGI is over 100 µM. `Cn1cnc([N+](=O)[O-])c1Sc1nc2ccccc2[nH]1` came in with a TGI of 17.2 µM. As for `COC(=O)C1=C(C)NC(C)=C(C(=O)OCCCN2CCC(c3ccccc3)(c3ccccc3)CC2)C1c1cccc([N+](=O)[O-])c1` (configuration not stated), the TGI stood at 11.8 µM. Compound `CC1(C)C2CCC(=O)C1CC2` (configuration not stated) returned a TGI of over 100 µM.

In turn, `CCCCCCN(CCCCCC)C(=O)Cc1c2n(c3ccccc13)Cc1ccccc1-2` returned a TGI of over 100 µM. Same read-out and setting: to `Brc1ccccc1C1SCc2nc3ccccc3n21` (configuration not stated) belongs 61.2 µM; to `O=C(/C=C\c1ccc(Cl)c(Cl)c1)c1ccc(Cl)cc1Cl`, over 100 µM; to `Cn1c2ccccc2c2cc(-c3ccccc3)c3c(c21)C(=O)c1ccccc1C3=O`, over 100 µM. As for `CN(C)c1ccc(/C=C(\NC(=O)c2ccccc2)c2nc3ncncc3[nH]2)cc1`, the TGI is over 100 µM. `CC1=CC(O)(c2ccc(-c3ccccc3Cl)cc2)OC1=O` (configuration not stated): the TGI is over 100 µM. In turn, `CCOC(=O)CC(=O)ON(C)C(C)=O` registered a TGI of over 100 µM. Take `COc1cc(NCc2ccc3oc(=O)c(-c4ccccc4)nc3c2)cc(OC)c1OC`: the TGI is over 10 µM.

In the case of `CCc1cc(Cc2cc(CC)c(NC(=O)C(=O)Cc3ccccn3)c(CC)c2Cl)c(Cl)c(CC)c1NC(=O)C(=O)Cc1ccccn1`, the TGI is over 100 µM. Regarding `CC(C)OP(=O)(OC(C)C)C(=NCCN=C(NNc1ccc([N+](=O)[O-])cc1)P(=O)(OC(C)C)OC(C)C)NNc1ccc([N+](=O)[O-])cc1`, the TGI was 25.4 µM. This lies in the double-digit micromolar range. With `O=S1(=O)OCCOS(=O)(=O)C1Br`, the TGI was over 100 µM. With `CC(C)=Cc1cc(C(=O)Nc2ccc(Cl)c(Cl)c2)nc(N)n1`, the TGI was over 100 µM.

`C#CC1(O)CCC2C3CCc4cc(Oc5nc(F)nc(-c6c7ccccc7c7sc8ccccc8n67)n5)ccc4C3CC[C@@]21C` (some centres not stated) displayed a TGI of over 100 µM. `CC(=O)/C(=C\c1cccc([N+](=O)[O-])c1)C(=O)Nc1ccccc1C`: the TGI was over 100 µM. `Clc1ccc(C(c2ccc(Cl)cc2)c2ccccn2)cc1`: the TGI turned out to be 56.8 µM. Take `C[Si](C)(C)C1(Sc2ccccc2)SCCCS1`: the TGI was over 100 µM. The compound `CC(C)(C)OC(=O)N[C@H]1CC2(C=C(Cl)C(=O)C(Cl)=C2)OC1=O` yielded a TGI of 26.5 µM. Consider `O=c1cc(-c2ccccc2)oc2cc(OCCCOc3ccc4c(=O)cc(-c5ccccc5)oc4c3)ccc12`, for which the total growth inhibition concentration (TGI) was over 100 µM.

A further test deals with HOP-62 NSCLC. The experiment in a line: DTP human tumour cell line panel, 48 h.
For the compound `CCOC(=O)NC(=O)c1cn(CCCO)c(=O)[nH]c1=O`, the TGI was over 100 µM. `CCN1c2ccccc2C(C(SC)S(=O)(=O)c2ccc(C)cc2)c2c1[nH]c(=O)n(C)c2=O` (configuration not stated): the TGI was over 100 µM. In turn, `COc1ccc(S(=O)(=O)NNS(C)(=O)=O)cc1` registered a TGI of over 100 µM.

For `CN1CCN(CCCn2c(=O)c3sc4ncccc4c3n3nnc(-c4ccccc4)c23)CC1`, the GI50 was 8.19 µM and the TGI turned out to be 15.3 µM. On to `CC(=O)OC1COC(n2ccc3cc(Br)c([N+](=O)[O-])cc32)C(OC(C)=O)C1OC(C)=O` (configuration not stated), for which the TGI came out at 92.2 µM. `Cn1cnc([N+](=O)[O-])c1Sc1nc2ccccc2[nH]1` showed a TGI of over 100 µM. `COC(=O)C1=C(C)NC(C)=C(C(=O)OCCCN2CCC(c3ccccc3)(c3ccccc3)CC2)C1c1cccc([N+](=O)[O-])c1` (configuration not stated) came in with a TGI of 9.16 µM.

Take `COc1ccc([C@H]2[C@@H](F)C(=O)N2c2cc(OC)c(OC)c(OC)c2)cc1F`: the GI50 is 0.511 µM and the TGI was over 100 µM. For the compound `CC1(C)C2CCC(=O)C1CC2` (configuration not stated), the TGI was over 100 µM. On the same count and under the same terms, to `CCCCCCN(CCCCCC)C(=O)Cc1c2n(c3ccccc13)Cc1ccccc1-2` belongs over 100 µM. `C/C(=N\NC(=S)NC(CCC(=O)O)C(=O)O)c1ccccn1` (configuration not stated) had a TGI of over 100 µM. Turning to `Brc1ccccc1C1SCc2nc3ccccc3n21` (configuration not stated), the TGI was found to be 39.2 µM. This lies in the double-digit micromolar range.

Take `O=C(/C=C\c1ccc(Cl)c(Cl)c1)c1ccc(Cl)cc1Cl`: the GI50 is over 100 µM and the TGI is over 100 µM. Consider `CCOC(=O)C(=C=C=C(c1ccccc1)c1ccccc1)C(=O)OCC`, for which the TGI amounted to 45.2 µM. `Cn1c2ccccc2c2cc(-c3ccccc3)c3c(c21)C(=O)c1ccccc1C3=O` came in with a TGI of over 100 µM. Take `c1ccc(COc2cccc3ccc[n+](Cc4ccccc4)c23)cc1`: the TGI turned out to be 50.8 µM. On the same count and under the same terms, to `CC1=CC(O)(c2ccc(-c3ccccc3Cl)cc2)OC1=O` (configuration not stated) belongs over 100 µM.

Take `CCOC(=O)CC(=O)ON(C)C(C)=O`: the TGI is over 100 µM.

Regarding `COc1cc(NCc2ccc3oc(=O)c(-c4ccccc4)nc3c2)cc(OC)c1OC`, the TGI is over 10 µM.

`CCc1cc(Cc2cc(CC)c(NC(=O)C(=O)Cc3ccccn3)c(CC)c2Cl)c(Cl)c(CC)c1NC(=O)C(=O)Cc1ccccn1` yielded a TGI of over 100 µM.

Turning to `CC(C)OP(=O)(OC(C)C)C(=NCCN=C(NNc1ccc([N+](=O)[O-])cc1)P(=O)(OC(C)C)OC(C)C)NNc1ccc([N+](=O)[O-])cc1`, the TGI was over 100 µM.

As for `COC(OC)C(C)CC(=O)N(C)C` (configuration not stated), the TGI is over 100 µM. On the same count and under the same terms, for `O=S1(=O)OCCOS(=O)(=O)C1Br` the value was over 100 µM; for `CC(C)=Cc1cc(C(=O)Nc2ccc(Cl)c(Cl)c2)nc(N)n1`, over 100 µM. In the case of `C#CC1(O)CCC2C3CCc4cc(Oc5nc(F)nc(-c6c7ccccc7c7sc8ccccc8n67)n5)ccc4C3CC[C@@]21C` (some centres not stated), the TGI is over 100 µM. The compound `CC(=O)/C(=C\c1cccc([N+](=O)[O-])c1)C(=O)Nc1ccccc1C` displayed a TGI of over 100 µM. Consider `C[Si](C)(C)C1(Sc2ccccc2)SCCCS1`, for which the concentration for total growth inhibition (TGI) was found to be 76.4 µM. `CC(C)(C)OC(=O)N[C@H]1CC2(C=C(Cl)C(=O)C(Cl)=C2)OC1=O` returned a TGI of over 73.7 µM. On to `O=c1cc(-c2ccccc2)oc2cc(OCCCOc3ccc4c(=O)cc(-c5ccccc5)oc4c3)ccc12`, for which the TGI is over 100 µM.

These data come from PubChem BioAssay (NCI).
